In patent US10064865B2, “Composition comprising phosphodiesterase type 5 inhibitor for inhibiting apoptosis of nerve cells” (ARIBIO INC., priority 2012, dated 2018):

What was measured:
PARP = test: Example 2 immunohistochemistry: PARP-immunoreactive cells; type: in vivo, Sprague-Dawley (SD) rats; details: for Numbers of neurons: PARP+: 1 mg/kg s.c. once a day for 14 days, 29 days after neuron apoptosis
Description: (§1) The induction of neuron apoptosis was carried out by damaging the right hemisphere of the brain of animals. Specifically, animals were anesthetized with 2 or 3% isoflurane in the mixture of 70% N2O and 28.5% O2, and were maintained with 1 to 1.5% isoflurane in the mixture of 70% N2O and 28.5% O2. After that the temporalis muscle was bisected and reflected through an incision made midway between the eye and the eardrum canal. The proximal MCA was exposed through a subtemporal craniectomy by microdental drills without removing the zygomatic arch and without transecting the facial nerve. […] Mortality was less than 5%. For sham control, all procedures were performed in the same way, with the exception of the occlusion of the MCA.
After deparaffinized of prepared […] histological paraffin sections, citrate buffer antigen (epitope) retrieval pretreatment were conducted as previously (Shi S R et al., J Histochem Cytochem. 41:1599-604(1993)). Briefly, pre-heat water bath with staining dish containing 10 mM citrate buffers (pH 6.0) until temperature reaches 95-100° C. Immerse slides in the staining dish and place the lid loosely on the staining dish. Incubate for 20 minutes and turn off the water bath. Place the staining dish at room temperature and allow the slides to cool for 20 minutes. After epitope retrievals, sections were immunostained using avidin-biotin complex (ABC) methods for caspase-3 and PARP. Endogenous peroxidase activity was blocked by incubated in methanol and 0.3% H2O2 for 30 minutes, and non-specific binding of immunoglobulin was blocked with normal horse serum blocking solution (Vector Lab., Burlingame, Calif., USA. Dilution 1:100) for 1 hr in humidity chamber. Primary antiserum were treated for overnight at 4° C. in humidity chamber, and then incubated with biotinylated universal secondary antibody (Vector Lab., Dilution 1:50) and ABC reagents (Vectastain Elite ABC Kit, Vector Lab., Dilution 1:50) for 1 hr at room temperature in humidity chamber. Finally, reacted with peroxidae substrate kit (Vector Lab.) for 3 min at room temperature. All sections were rinse in 0.01M PBS for 3 times, between steps. The neurons occupied by over 10% of immunoreactivities, the density, of each antiserum for caspase-3 and PARP were regarded as positive, and the mean numbers of caspase-3 and PARPimmunoreactive cells dispersed in the mm^2 of ipsilateral peri-infarct/defect cerebral cortex were counted using an automated image analysis process as establish methods (Lee et al., 2010; Song et al., 2012), respectively. The histopathologist was blinded to the group distribution when performing the analysis.
All data were expressed as mean±standard deviation (S.D.) of ten rats. Multiple comparison tests for different dose groups were conducted. Variance homogeneity was examined using the Levene test (Levene A, Clin Otalary, 1981; 6:145-51). […] Statistical analyses were conducted using SPSS for Windows (Release 14K, SPSS Inc., USA; Ludbrook, Clin Exp Pharmacol Physiol, 1997; 24:294-6). In addition, the percent changes as compared with neuron apoptosis control and mirodenafil treated rats were calculated to help the understanding of the efficacy of test substances as follow Equation 6 and 7. Percentage Changes as Compared with Sham Control (%)=[((Data of neuron apoptosis control−Data of sham control rat)/Data of sham control rats)×100] [EQUATION 6] Percentage Changes as Compared with neuron apoptosis Control (%)=[((Data of test material treated rats−Data of neuron apoptosis control rats)/Data of neuron apoptosis control rats)×100] [EQUATION 7]

[1] = system: neuron apoptosis-operated rats, ipsilateral cerebral cortex; test: Example 2 (timing of administration) histopathology: cerebral atrophy and degenerative neurons; type: in vivo, Sprague-Dawley (SD) rats; details: for Cerebral atrophic % / Numbers of neurons: Degenerative cells: 1 mg/kg s.c. once a day for 14 days, 29 days after neuron apoptosis
Description: Total one hundred healthy male Sprague-Dawley (SD) rats (6-wk old upon receipt; Japan; Body weight ranged in 170-190 g upon receipt) were used after acclimatization for 16 days. Animals were allocated four per polycarbonate cage in a temperature (20-25° C.) and humidity (50-55%) controlled room. Light:dark cycle was 12 hr:12 hr, and standard rodent chow (Samyang, Korea) and water were supplied free to access. All animals were treated in accordance with the Guidelines for Care and Use of Laboratory Animals of Daegu Haany University based on the Guide for the Care and Use of Laboratory Animals by Institute of Laboratory Animal Resources, Commission on Life Science, National Research Council, USA on 1996, Washington D.C. Experimental groups are as follows:
The mirodenafil (mirodenafil 2HCl; SK Chemical Life Science Business, KR) was used in this experiment. […] Mirodenafil was stored at 4° C. in a refrigerator to protect from light and humidity until used. Mirodenafil were directly dissolved in saline as 1 mg/ml concentrations, and subcutaneously administered in a volume of 1 ml/kg on the dorsal back skins from 24, 72 and 168 hrs after neuron apoptosis, once a day for 14 days, respectively. In saline and neuron apoptosis control rats, equal volumes of saline as vehicle were administered, instead of mirodenafil from 24 hrs after neuron apoptosis for 20 days, respectively.
as §1
At 29 days after neuron apoptosis, rats were sacrificed under deep anesthesia with 3% isoflurane inhalation. Brains were removed, washed in chilled phosphate buffered saline (PBS, pH7.4), and dissected into 6 coronal sections (2 mm thickness) ranging from 2 to 14 mm from the frontal brain pole on the rat brain stainless steel coronal matrix (Harvard, USA). Prepared last 6th cerebral parts were directly fixed in 10% neural buffered formalin. Then, embedded in paraffin, cross-sectioned, and stained with hematoxylin and eosin (H&E) for observing general histopathology of cerebral cortex. […] The histopathologist was blindes to group distribution when this analysis was made.
Histomorphometry: The atrophic % of ipsilateral cerebral cortex was calculated as following Equation 4 as compared with intact contralateral hemisphere in prepared peri-infarct/defect histological specimens. In addition, the numbers of degenerative neurons were also measured in the restricted view fields of cerebral cortex, mm2, respectively. Cerebral atrophy formation=(Contralateral cerebral cortex area−ipsilateral cerebral cortex area)/Contralateral cerebral cortex area×100(%) [EQUATION 4]
All data were expressed as mean±standard deviation (S.D.) of ten rats. Multiple comparison tests for different dose groups were conducted. Variance homogeneity was examined using the Levene test (Levene A, Clin Otalary, 1981; 6:145-51). […] Statistical analyses were conducted using SPSS for Windows (Release 14K, SPSS Inc., USA; Ludbrook, Clin Exp Pharmacol Physiol, 1997; 24:294-6). In addition, the percent changes as compared with neuron apoptosis control and mirodenafil treated rats were calculated to help the understanding of the efficacy of test substances as follow Equation 6 and 7. […]

[2] = 1 mg/kg from 24 hrs after surgery
[3] = 1 mg/kg from 72 hrs after surgery
[4] = 1 mg/kg from 168 hrs after surgery

## CCCOc1ccc(S(=O)(=O)N2CCN(CCO)CC2)cc1-c1nc2c(CCC)cn(CC)c2c(=O)[nH]1 [Mirodenafil, mirodenafil]
PARP; [2]
  numbers of PARP-immunoreactive neurons at 29 days, change as compared with neuron apoptosis control: −53.92%
PARP; [3]
  numbers of PARP-immunoreactive neurons at 29 days, change as compared with neuron apoptosis control: −39.72%
PARP; [4]
  numbers of PARP-immunoreactive neurons at 29 days, change as compared with neuron apoptosis control: −15.68%
PARP; start 24 hrs after operation
  Numbers of neurons: PARP+: 36.14 ± 5.32^ab cells/mm^2 of cerebral cortex
PARP; start 72 hrs after operation
  Numbers of neurons: PARP+: 47.28 ± 5.36^ab cells/mm^2 of cerebral cortex
PARP; start 168 hrs after operation
  Numbers of neurons: PARP+: 66.13 ± 9.61^ac cells/mm^2 of cerebral cortex
[1]; [2]
  ipsilateral cerebral atrophic % at 29 days, change as compared with neuron apoptosis control: −60.71%
  numbers of degenerative neurons at sacrifice, change as compared with neuron apoptosis control: −70.64%
[1]; [3]
  ipsilateral cerebral atrophic % at 29 days, change as compared with neuron apoptosis control: −26.37%
  numbers of degenerative neurons at sacrifice, change as compared with neuron apoptosis control: −45.90%
[1]; [4]
  ipsilateral cerebral atrophic % at 29 days, change as compared with neuron apoptosis control: −12.31%
  numbers of degenerative neurons at sacrifice, change as compared with neuron apoptosis control: −15.40%
[1]; start 24 hrs after operation
  Cerebral atrophic %: 21.90 ± 3.13^ab %
  Numbers of neurons: Degenerative cells: 22.80 ± 3.69^ab cells/mm^2 of cerebral cortex
[1]; start 72 hrs after operation
  Cerebral atrophic %: 41.03 ± 5.05^ab %
  Numbers of neurons: Degenerative cells: 42.01 ± 6.14^ab cells/mm^2 of cerebral cortex
[1]; start 168 hrs after operation
  Cerebral atrophic %: 48.87 ± 3.25^ac %
  Numbers of neurons: Degenerative cells: 65.70 ± 7.64^ac cells/mm^2 of cerebral cortex
